37 molecules from ChEMBL document CHEMBL6092168, “Identification of novel indolinone derivatives as CTSC inhibitors to treat inflammatory bowel disease by modulating inflammatory factors” (Eur J Med Chem, 2024) can be followed below.

The structures appear in SMILES notation. Active and inactive are the calls of the source. No cut-off for these calls is given here.

Assay [1] addresses Dipeptidyl peptidase 1 (Homo sapiens, UniProt P53634). The assay is described as follows: Inhibition of human recombinant Cathepsin C using Gly-Phe-AFC as substrate preincubated for 3 hrs followed by substrate addition and measured after 1 hr by fluorescence based multifunctional microplate reader analysis.
Assay [2] relates to RAW264.7. Description: Anti-inflammatory activity in mouse RAW264.7 cells assessed as inhibition of LPS-induced NO production preincubated for 1 hr followed by LPS addition and measured after 24 hrs by Griess reagent based assay. Format: functional, cell-based. On the technique in general: Griess reagent forms a coloured azo dye with nitrite.
Assay [3] relates to RAW264.7. Description: Anti-inflammatory activity in mouse RAW264.7 cells assessed as inhibition of LPS-induced IL-1beta production at 5 uM preincubated for 1 hr followed by LPS addition and measured after 24 hrs by ELISA relative to control. It is filed as functional. On the technique in general: In an ELISA, binding on a coated surface is turned into a signal by an enzyme label.

In assay [4] the test system is RAW264.7. Description: Anti-inflammatory activity in mouse RAW264.7 cells assessed as inhibition of LPS-induced TNF-alpha production at 5 uM preincubated for 1 hr followed by LPS addition and measured after 24 hrs by ELISA relative to control. It is filed as functional.

Sequence of Dipeptidyl peptidase 1 (P53634 25-134 limits assumed): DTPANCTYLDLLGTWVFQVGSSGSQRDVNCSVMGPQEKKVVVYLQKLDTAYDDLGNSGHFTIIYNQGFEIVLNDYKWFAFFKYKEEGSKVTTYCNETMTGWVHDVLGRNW
Sequence of Dipeptidyl peptidase 1 (P53634 231-394 limits assumed): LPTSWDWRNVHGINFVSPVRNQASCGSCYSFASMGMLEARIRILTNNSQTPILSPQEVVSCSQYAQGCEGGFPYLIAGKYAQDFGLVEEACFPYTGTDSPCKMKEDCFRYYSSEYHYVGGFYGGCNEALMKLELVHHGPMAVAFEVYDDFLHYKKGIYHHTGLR
Sequence of Dipeptidyl peptidase 1 (P53634 395-463 limits assumed): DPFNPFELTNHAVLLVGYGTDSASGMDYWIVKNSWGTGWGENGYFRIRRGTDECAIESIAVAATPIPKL

What is called IC50 is the midpoint of a concentration-inhibition curve. `CC(C)c1ccccc1NC(=O)c1cccc(-c2ccc(CN3CCOCC3)cc2)c1`: the IC50 in assay [1] was over 1000 nM; in assay [2] it was over 50000 nM. Further, the outcome in assay [3] (time 25.0 hrs) and in assay [4] (time 25.0 hrs) was inactive.

As to `NC(=O)c1ccc(NC(=O)c2cccc(-c3ccc(CN4CCOCC4)cc3)c2)cc1`, the 50% inhibitory concentration (IC50) in assay [1] was over 1000 nM; in assay [2], over 50000 nM. The result in assay [3] (time 25.0 hrs) and in assay [4] (time 25.0 hrs) was inactive.

With `Nc1c(C(=O)Nc2cccc3ccccc23)cccc1-c1ccc(CN2CCOCC2)cc1`, the results for the IC50 in assay [1] and in assay [2] were 272 nM and 8400 nM, respectively. Moreover, the Activity in assay [3] (time 25 hrs) was found to be 67.1%; in assay [4] (time 25 hrs), 40.1%.

With `O=C1Nc2c(cccc2-c2ccc(CN3CCOCC3)cc2)/C1=C/c1ccnc2ccccc12`, the IC50 was found to be 106 nM in assay [1] and 4400 nM in assay [2]. Besides, the Activity in assay [3] (time 25 hrs) came to 88.3%; in assay [4] (time 25 hrs), 72.2%.

In the case of `O=C1Nc2c(cccc2-c2ccc(F)cc2)/C1=C/c1ccnc2ccccc12`, the results for the IC50 in assay [1] and in assay [2] were over 1000 nM and 37200 nM, respectively. Further, the result in assay [3] (time 25.0 hrs) and in assay [4] (time 25.0 hrs) was inactive.

As for `O=C(Nc1nccc2ccccc12)c1cccc(-c2ccc(CN3CCOCC3)cc2)n1`, the IC50 in assay [1] is 244 nM; in assay [2] it was over 50000 nM. Also, the outcome in assay [3] (time 25.0 hrs) and in assay [4] (time 25.0 hrs) was inactive.

Consider `CC(=O)c1ccc(-c2cccc3c2NC(=O)/C3=C\c2ccnc3ccccc23)cc1`, for which the half-inhibitory concentration (IC50) in assay [1] is 293 nM; in assay [2], 16800 nM. Moreover, the result in assay [3] (time 25.0 hrs) and in assay [4] (time 25.0 hrs) was inactive.

Take `O=C1Nc2c(cccc2-c2ccc3[nH]ccc3c2)/C1=C/c1ccnc2ccccc12`: the IC50 in assay [1] is 195 nM; in assay [2], 6800 nM. The Activity in assay [3] (time 25 hrs) is listed as 63.5%; in assay [4] (time 25 hrs), 43.2%.

As to `CCc1ccccc1NC(=O)c1cccc(-c2ccc(CN3CCOCC3)cc2)c1`, the IC50 in assay [1] is over 1000 nM; in assay [2], over 50000 nM. The outcome in assay [3] (time 25.0 hrs) and in assay [4] (time 25.0 hrs) was inactive.

On to `O=C(Nc1cccc(Cl)c1)c1cccc(-c2ccc(CN3CCOCC3)cc2)c1`, for which the IC50 in assay [1] was 377 nM; in assay [2], over 50000 nM. In addition, the results for the Activity in assay [3] (time 25 hrs) and in assay [4] (time 25 hrs) were 40.2% and 35.5%, respectively.

For the molecule `O=C(Nc1ccc(Cl)cc1)c1cccc(-c2ccc(CN3CCOCC3)cc2)c1`, the IC50 in assay [1] was 575 nM; in assay [2], over 50000 nM. Moreover, the result in assay [3] (time 25.0 hrs) and in assay [4] (time 25.0 hrs) was inactive.

In the case of `Cc1ccc(-c2cccc3c2NC(=O)/C3=C\c2ccnc3ccccc23)cc1`, the IC50 in assay [1] is over 1000 nM; in assay [2] it was 18700 nM. Also, the outcome in assay [3] (time 25.0 hrs) and in assay [4] (time 25.0 hrs) was inactive.

Regarding `O=C(Nc1cccc2ccccc12)c1cccc(-c2ccc(CN3CCOCC3)cc2)n1`, the IC50 came out at 253 nM in assay [1] and 10000 nM in assay [2]. In addition, the Activity is 68.5% in assay [3] (time 25 hrs) and 59.6% in assay [4] (time 25 hrs).

With `O=C1Nc2c(cccc2-c2ccc(C(F)(F)F)cc2)/C1=C/c1ccnc2ccccc12`, the IC50 in assay [1] is over 1000 nM; in assay [2], over 50000 nM. The result in assay [3] (time 25.0 hrs) and in assay [4] (time 25.0 hrs) was inactive.

As for `O=C1Nc2c(cccc2-c2ccc(OC(F)(F)F)cc2)/C1=C/c1ccnc2ccccc12`, the IC50 was over 1000 nM in assay [1] and over 50000 nM in assay [2]. The result in assay [3] (time 25.0 hrs) and in assay [4] (time 25.0 hrs) was inactive.

In the case of `O=C1Nc2c(cccc2-c2ccc(CN3CCNCC3)cc2)/C1=C/c1ccnc2ccccc12`, the IC50 in assay [1] stood at 128 nM; in assay [2] it was 5100 nM. The Activity stood at 82.5% in assay [3] (time 25 hrs) and 68.7% in assay [4] (time 25 hrs).

Turning to `CCc1ccc(-c2cccc3c2NC(=O)/C3=C\c2ccnc3ccccc23)cc1`, the IC50 is over 1000 nM in assay [1] and over 50000 nM in assay [2]. Moreover, the result in assay [3] (time 25.0 hrs) and in assay [4] (time 25.0 hrs) was inactive.

Regarding `CC(=O)Nc1ccc(NC(=O)c2cccc(-c3ccc(CN4CCOCC4)cc3)c2)cc1`, the figures for the half-inhibitory concentration (IC50) in assay [1] and in assay [2] were 770 nM and over 50000 nM, respectively. Moreover, the result in assay [3] (time 25.0 hrs) and in assay [4] (time 25.0 hrs) was inactive.

Turning to `O=C(Nc1cccc(O)c1)c1cccc(-c2ccc(CN3CCOCC3)cc2)c1`, the IC50 is 265 nM in assay [1] and 9700 nM in assay [2]. Further, the Activity came to 55.7% in assay [3] (time 25 hrs) and 62.2% in assay [4] (time 25 hrs).

On to `O=C(Nc1ccc(F)cc1)c1cccc(-c2ccc(CN3CCOCC3)cc2)c1`, for which the IC50 in assay [1] was over 1000 nM; in assay [2], over 50000 nM. Besides, the outcome in assay [3] (time 25.0 hrs) and in assay [4] (time 25.0 hrs) was inactive.

Take `Nc1n[nH]c2ccc(-c3cccc4c3NC(=O)/C4=C\c3ccnc4ccccc34)cc12`: the values for the half-inhibitory concentration (IC50) in assay [1] and in assay [2] were 398 nM and 15600 nM, respectively. Also, the results for the Activity in assay [3] (time 25 hrs) and in assay [4] (time 25 hrs) were 59.3% and 37.8%, respectively.

For the molecule `COc1cccc(NC(=O)c2cccc(-c3ccc(CN4CCOCC4)cc3)c2)c1`, the concentration for half-maximal inhibition (IC50) is 486 nM in assay [1] and over 50000 nM in assay [2]. The Activity in assay [3] (time 25 hrs) is given as 25.5%; in assay [4] (time 25 hrs), 20.4%.

As to `Nc1c(C(=O)Nc2cncc3ccccc23)cccc1-c1ccc(CN2CCOCC2)cc1`, the IC50 in assay [1] came to 222 nM; in assay [2] it was 5300 nM. In addition, the results for the Activity in assay [3] (time 25 hrs) and in assay [4] (time 25 hrs) were 62.3% and 60.8%, respectively.

For `O=C(Nc1ccccc1)c1cccc(-c2ccc(CN3CCOCC3)cc2)c1`, the results for the IC50 in assay [1] and in assay [2] were over 1000 nM and over 50000 nM, respectively. Also, the result in assay [3] (time 25.0 hrs) and in assay [4] (time 25.0 hrs) was inactive.

As to `O=C1Nc2c(cccc2-c2ccc(C(=O)N3CCOCC3)cc2)/C1=C/c1ccnc2ccccc12`, the IC50 was 182 nM in assay [1] and 8600 nM in assay [2]. In addition, the Activity in assay [3] (time 25 hrs) is on record as 65.2%; in assay [4] (time 25 hrs), 58.1%.

Regarding `O=C(Nc1ccc(O)cc1)c1cccc(-c2ccc(CN3CCOCC3)cc2)c1`, the IC50 is 237 nM in assay [1] and 15700 nM in assay [2]. The Activity was determined as 38.6% in assay [3] (time 25 hrs) and 40.8% in assay [4] (time 25 hrs).

Regarding `O=C1Nc2c(cccc2-c2ccc(Cl)cc2)/C1=C/c1ccnc2ccccc12`, the IC50 in assay [1] is over 1000 nM; in assay [2], over 50000 nM. For the same molecule, the result in assay [3] (time 25.0 hrs) and in assay [4] (time 25.0 hrs) was inactive.

As for `CC(=O)c1ccc(NC(=O)c2cccc(-c3ccc(CN4CCOCC4)cc3)c2)cc1`, the IC50 in assay [1] is over 1000 nM; in assay [2], over 50000 nM. The outcome in assay [3] (time 25.0 hrs) and in assay [4] (time 25.0 hrs) was inactive.

Turning to `Nc1ccc(NC(=O)c2cccc(-c3ccc(CN4CCOCC4)cc3)c2)cc1`, the values for the half-maximal inhibitory concentration (IC50) in assay [1] and in assay [2] were over 1000 nM and over 50000 nM, respectively. Also, the result in assay [3] (time 25.0 hrs) and in assay [4] (time 25.0 hrs) was inactive.

For `Cc1cccc(NC(=O)c2cccc(-c3ccc(CN4CCOCC4)cc3)c2)c1`, the IC50 in assay [1] was over 1000 nM; in assay [2] it was over 50000 nM. In addition, the result in assay [3] (time 25.0 hrs) and in assay [4] (time 25.0 hrs) was inactive.

Take `O=C1Nc2c(cccc2-c2ccc3cn[nH]c3c2)/C1=C/c1ccnc2ccccc12`: the IC50 came out at 311 nM in assay [1] and 14800 nM in assay [2]. Moreover, the Activity in assay [3] (time 25 hrs) is 65.3%; in assay [4] (time 25 hrs), 43.3%.

`Cc1ccccc1NC(=O)c1cccc(-c2ccc(CN3CCOCC3)cc2)c1`: the IC50 in assay [1] was over 1000 nM; in assay [2] it was over 50000 nM. The outcome in assay [3] (time 25.0 hrs) and in assay [4] (time 25.0 hrs) was inactive.

Turning to `Cc1ccc(NC(=O)c2cccc(-c3ccc(CN4CCOCC4)cc3)c2)cc1`, the results for the IC50 in assay [1] and in assay [2] were over 1000 nM and over 50000 nM, respectively. The result in assay [3] (time 25.0 hrs) and in assay [4] (time 25.0 hrs) was inactive.

Regarding `NC(=O)c1ccc(-c2cccc3c2NC(=O)/C3=C\c2ccnc3ccccc23)cc1`, the 50% inhibitory concentration (IC50) in assay [1] came out at 290 nM; in assay [2] it was 16200 nM. Further, the result in assay [3] (time 25.0 hrs) and in assay [4] (time 25.0 hrs) was inactive.

On to `CN(C)Cc1ccc(-c2cccc3c2NC(=O)/C3=C\c2ccnc3ccccc23)cc1`, for which the IC50 in assay [1] turned out to be 660 nM; in assay [2], 14500 nM. Moreover, the result in assay [3] (time 25.0 hrs) and in assay [4] (time 25.0 hrs) was inactive.

As for `CC(=O)c1cccc(NC(=O)c2cccc(-c3ccc(CN4CCOCC4)cc3)c2)c1`, the IC50 in assay [1] came to 292 nM; in assay [2] it was 20200 nM. For the same molecule, the values for the Activity in assay [3] (time 25 hrs) and in assay [4] (time 25 hrs) were 47.4% and 50.3%, respectively.

`COc1ccc(-c2cccc3c2NC(=O)/C3=C\c2ccnc3ccccc23)cc1`: the IC50 was over 1000 nM in assay [1] and over 50000 nM in assay [2]. The result in assay [3] (time 25.0 hrs) and in assay [4] (time 25.0 hrs) was inactive.
